We go through 15 compounds from ChEMBL document CHEMBL5537169, “Structure-Activity Relationships and Discovery of (S)-6-Isopropyl-2-methoxy-3-(3-methoxypropoxy)-10-oxo-5,10-dihydro-6H-pyrido[1,2-h][1,7]naphthyridine-9-carboxylic Acid (AB-452), a Novel Orally Available HBV RNA Destabilizer” (J Med Chem, 2024).

pEC50: −log10 of the molar value. Bounds are passed on as bounds.

Series [1] can be described thus: Clearance in human liver microsomes at 0.3 uM pre-incubated for 10 mins followed by NADPH addition incubated for 60 mins by LC-MS/MS analysis. The class given is ADME, Microsome. The note with it: time 70 min, read-out: CLH.
Another series deals with HepG2 2.2.15. Briefly: Cytotoxicity against human HepG2.2.15 cells by Cell-titer Glo luminescent assay. The class given is functional.
The subject of another series is Hepatitis B virus. Briefly: Antiviral activity against HBV infected in human HepG2.2.15 cells assessed as inhibition of HBsAg level incubated for 6 days by microplate-based chemiluminescence immunoassay. The class given is functional, organism-based. The conditions noted are these: HepG2 2.2.15, 144 h.
Series [2] is described as follows: Clearance in CD-1 mouse liver microsomes at 0.3 uM pre-incubated for 10 mins followed by NADPH addition incubated for 60 mins by LC-MS/MS analysis. In kind it is ADME, Microsome. The conditions noted are these: time 70 min, read-out: CLH. In general terms: Liver microsomes are vesicles of endoplasmic reticulum, rich in cytochrome P450 enzymes.

As a reminder, the CC50 is the concentration at which the toxic effect on the cells reaches its halfway point. High values mean lower toxicity to the cells, low ones greater toxicity to the cells. By pEC50 is commonly meant −log10 of the EC50, conventionally taken in molar units. Take `CC(C)[C@@H]1COc2cc(OCC(F)(F)F)c(Cl)cc2-c2cc(=O)c(C(=O)O)cn21`: the microsomal CLint at 0.3 µM in series [1] came to 4 µL/min/mg. The CC50 in the series on HepG2 2.2.15 is 36 µM. Also, the pEC50 in the series with Hepatitis B virus is 7.06.
Regarding `COc1nc2c(s1)CC(C(C)C)n1cc(C(=O)O)c(=O)cc1-2` (configuration not stated), the CC50 in the series on HepG2 2.2.15 is above 50 µM. For the same compound, in the series on Hepatitis B virus, the pEC50 was 5.42.
The corresponding values for `COc1cc2c(nc1OC)-c1cc(=O)c(C(=O)O)cn1[C@@H](C(C)C)C2` are above 50 µM and 6.52.
For `CC(C)C1Cc2sc(Cl)cc2-c2cc(=O)c(C(=O)O)cn21` (configuration not stated) the same measures were above 50 µM and 4.68.
`C=Cc1cc2c(cc1OCCCOC)OC[C@@H](C(C)C)n1cc(C(=O)O)c(=O)cc1-2` registered a CC50 in the series with HepG2 2.2.15 of 33 µM. In the series on Hepatitis B virus, the pEC50 is 8.40.
For `COc1cc2c(nc1OC)-c1cc(=O)c(C(=O)O)cn1C(C(C)C)C2` (configuration not stated) the same measures were above 50 µM and 7.85.
On to `COc1cccc(Cn2cc(C(C)C)n3cc(C(=O)O)c(=O)cc3c2=O)c1`, for which, in the series with Hepatitis B virus, the pEC50 is 5.30.
Take `COCCCOc1cc2c([nH]c1=O)-c1cc(=O)c(C(=O)O)cn1[C@H](C(C)C)C2`: the half-maximal cytotoxic concentration (CC50) in the series with HepG2 2.2.15 is above 50 µM. Besides, the pEC50 with Hepatitis B virus is 6.35.
For `CC(C)C1Cc2sccc2-c2cc(=O)c(C(=O)O)cn21` (configuration not stated) the same measures were above 50 µM and 5.62.
For `COc1cc2c(cc1Cl)-c1cc(=O)c(C(=O)O)cn1C(C(C)C)CO2` (configuration not stated) the same measures were 46 µM and 7.12.
For `COCCOc1cc2c(cc1Cl)-c1cc(=O)c(C(=O)O)cn1[C@H](C(C)C)CO2` the same measures were above 50 µM and 7.28.
Turning to `COCCCCOc1cc2c(cc1Cl)-c1cc(=O)c(C(=O)O)cn1[C@H](C(C)C)CO2`, in the series on HepG2 2.2.15, the half-maximal cytotoxic concentration (CC50) was found to be 43 µM. Also, the microsomal CLint at 0.3 µM in series [2] is 1 µL/min/mg. Moreover, the pEC50 in the series on Hepatitis B virus is 7.80.
For `CC(C)[C@@H]1COc2cc(OCC(C)(C)CO)c(Cl)cc2-c2cc(=O)c(C(=O)O)cn21`, in the series on HepG2 2.2.15, the CC50 was above 50 µM. Besides, the microsomal CLint at 0.3 µM in series [2] was determined as 17 µL/min/mg. Further, in the series with Hepatitis B virus, the pEC50 is 7.92.
`COc1nc2c(cc1OCCCO)C[C@@H](C(C)C)n1cc(C(=O)O)c(=O)cc1-2` showed a 50% cytotoxic concentration (CC50) in the series with HepG2 2.2.15 above 50 µM. In addition, the pEC50 in the series with Hepatitis B virus was 8.15.
For the compound `COc1cc2c(cn1)-c1cc(=O)c(C(=O)O)cn1C(C(C)C)C2` (configuration not stated), the CC50 with HepG2 2.2.15 was above 50 µM. In the series with Hepatitis B virus, the pEC50 is 6.02.
